Experimental data: patent publication US11123304B2, “Nanoparticles having poly(ester amide) polymer cores as drug delivery vehicles” (The Brigham and Women's Hospital, Inc., priority 2017, dated 2021)

Legend:
blood glucose levels [1] = assay: Hypoglycemic effect of oral insulin-loaded NPs in normal rats; format: in vivo, Sprague Dawley rats; settings: subcutaneous injection
Experimental: Sprague Dawley rats (n=6 per group) were fasted overnight before experiments, but allowed free access to water. The animals were administered Tf-coated NPs and BSA-coated NPs (PEA75) in PBS (1.5 mL per 100 g of body weight), at an insulin dose of 50 U/kg, by oral gavage. Tf-coated NPs were tested with four different formulations, including PEA50 NPs, PEA75 NPs, PLGA-PEA50 NPs, and PLGA-PEA75 NPs. As controls, saline and free insulin (50 U/kg) were administered by oral gavage. One group of animals was administered with insulin solution (2 U/kg) by subcutaneous (SC) injection, which was used for the calculation of relative pharmacological availability (PA %). The blood glucose levels were measured as described above, and the pharmacological availability for different formulations was calculated relative to the SC route. […] All four tested Tf-coated NPs elicited a significant hypoglycemic response, reducing glucose during the first 1-6 hours after administration as shown in Table 3.

blood glucose levels [2] = assay: Hypoglycemic effect of oral insulin-loaded NPs in diabetic mice; format: in vivo, BALB/c mice; settings: subcutaneous injection
Experimental: For the evaluation of in vivo efficacy in diabetic animals, insulin-dependent (type 1) diabetes was induced in male BALB/c mice (Charles River Laboratories) by a single injection of streptozotocin solution ([…]) as previously described (see, e.g., 7. S. Arora, S. K. Ojha, D. Vohora, Global J. Pharmacol. 2009, 3, 81-84). Animals were considered to be diabetic if they had fasting glycemia higher than 16.0 mM one week after the injection. The diabetic mice (n=6 per group) were fasted overnight and then administered different samples by gavage, including saline, free insulin, Tf-coated NPs (PEA75), and BSA-coated NPs (PEA75) (insulin dose of 50 U/kg, 1.5 mL per 100 g of body weight). One group of animals was administered an insulin solution (5 U/kg) by subcutaneous (SC) injection. The blood glucose levels were measured as described above, and the pharmacological availability for different formulations was calculated relative to the SC route.

blood glucose levels [3] = assay: Bioactivity of insulin released from NPs, subcutaneous injection; format: in vivo, Sprague Dawley rats; settings: 2 U/kg subcutaneous, insulin released in PBS 2 hours at 37° C.
Experimental: To study the bioactivity of insulin after the preparation and drug release process, NPs were allowed to release insulin in PBS for 2 hours at 37° C. Then the NPs were isolated from the released insulin by ultra-centrifugation. Sprague Dawley rats (Dashuo Laboratory Animal Center) (n=4 per group) were fasted overnight, and then administered the released insulin (2 U/kg) or original free insulin (2 U/kg) and saline, by subcutaneous injection. Blood glucose levels were measured with the AlphaTRAK blood glucose monitoring system (Abbott).

## insulin [Free Insulin]
Blood glucose levels [1]; 2 U/kg
  AAC (area above the serum glucose concentration curve): 92.8 %*h
  Tmax: 30 min
Blood glucose levels [1]; 2 U/kg (reference route)
  PA (relative pharmacological availability): 100.0%
Blood glucose levels [2]; 5 U/kg
  AAC (area above the serum glucose concentration curve): 227.5 %*h
  Tmax: 60 min
Blood glucose levels [2]; 5 U/kg (reference route)
  PA (relative pharmacological availability): 100.0%

## released insulin: insulin released from the NPs in PBS for 2 hours at 37° C. and separated by ultra-centrifugation
Blood glucose levels [3]
  Hypoglycemic response of released insulin: hypoglycemic response analogous to an equivalent dose of free insulin solution
